Reference: patent US7081538B1, “Substituted isoxazolines and their use as antibacterial agents” (priority 1999, dated 2006)
Values after ≈ are worked out from the molar mass of the structure shown.

Tests used:
Assay type in all cases: cell-based
[1] = test system: Staphylococcus aureus Oxford; experiment: MIC by agar-dilution, Staphylococcus aureus Oxford; settings: inoculum 10^4 CFU/spot, 37° C., 24 hours
Protocol: (§1) The following results were obtained on a standard in-vitro test system. The activity is described in terms of the minimum inhibitory concentration (MIC) determined by the agar-dilution technique with an inoculum size of 10^4 CFU/spot. Typically, compounds are active in the range 0.01 to 256 μg/ml.
(§2) Staphylococci were tested on agar, using an inoculum of 10^4 CFU/spot and an incubation temperature of 37° C. for 24 hours—standard test conditions for the expression of methicillin resistance.

[2] = test system: Staphylococcus aureus Novb. Res (Novobiocin resistant); experiment: MIC by agar-dilution, Staphylococcus aureus Novb. Res; settings: inoculum 10^4 CFU/spot, 37° C., 24 hours
Protocol: as §1, §2

[3] = test system: Staphylococcus aureus MRQR (methicillin resistant quinolone resistant); experiment: MIC by agar-dilution, Staphylococcus aureus MRQR; settings: inoculum 10^4 CFU/spot, 37° C., 24 hours
Protocol: as §1, §2

[4] = test system: Coagulase Negative Staphylococci MS (methicillin sensitive); experiment: MIC by agar-dilution, Coagulase Negative Staphylococci MS; settings: inoculum 10^4 CFU/spot, 37° C., 24 hours
Protocol: as §1, §2

[5] = test system: Coagulase Negative Staphylococci MR (methicillin resistant); experiment: MIC by agar-dilution, Coagulase Negative Staphylococci MR; settings: inoculum 10^4 CFU/spot, 37° C., 24 hours
Protocol: as §1, §2

[6] = test system: Streptococcus pyogenes C203; experiment: MIC by agar-dilution, Streptococcus pyogenes C203; settings: agar with 5% defibrinated horse blood, 10^4 CFU/spot, 37° C., 5% carbon dioxide, 48 hours
Protocol: as §1
(§3) Streptococci and enterococci were tested on agar supplemented with 5% defibrinated horse blood, an inoculum of 10^4 CFU/spot and an incubation temperature of 37° C. in an atmosphere of 5% carbon dioxide for 48 hours—blood is required for the growth of some of the test organisms.

Enterococcus faecalis = experiment: MIC by agar-dilution, Enterococcus faecalis; settings: agar with 5% defibrinated horse blood, 10^4 CFU/spot, 37° C., 5% carbon dioxide, 48 hours
Protocol: as §1, §3

Bacillus subtilis = experiment: MIC by agar-dilution, Bacillus subtilis; settings: inoculum 10^4 CFU/spot
Protocol: as §1

O=C(CO)N1CC=C(c2ccc(C3=NOC(CNc4ccon4)C3)cc2)CC1 (racemic) [Example 1, (5RS)-3-(4-(1-Hydroxyacetyl-1,2,5,6-tetrahydropyrid-4-yl)phenyl)-5-(3-isoxazolylaminomethyl)-4,5-dihydro-isoxazole]
MIC [1]: 2 µg/mL (≈ 5.23 µM)
MIC [2]: 4 µg/mL (≈ 10.5 µM)
MIC [3]: 4 µg/mL (≈ 10.5 µM)
MIC [4]: 1 µg/mL (≈ 2.61 µM)
MIC [5]: 2 µg/mL (≈ 5.23 µM)
MIC [6]: 8 µg/mL (≈ 20.9 µM)
MIC (Enterococcus faecalis): 8 µg/mL (≈ 20.9 µM)
MIC (Bacillus subtilis): 1 µg/mL (≈ 2.61 µM)
